Data on 1 molecule can be found in patent US9457004B2, “Opsin-binding ligands, compositions and methods of use” (priority 2011, dated 2016).

The subject of the test is P23H opsin. The test can be described thus: Rhodopsin purification and regeneration (P23H cells treated with compound, regenerated with 9-cis-retinal, 480-500 nm absorbance). Conditions: FIG. 1; P23H opsin treated with 20 μM during mutant protein production, relative to vehicle (DMSO) alone.

As to `CC(=O)/C=C/C1=C(C)CCCC1(C)C` [β-ionone, reference compound], the “regeneration of 500 nm absorbing pigment upon treatment with retinal” value is reported as “increase”.
